The results in this text go back to patent US20180057505A1, “BICYCLIC HETEROARYL COMPOUNDS USEFUL AS INHIBITORS OF THE PAR-2 SIGNALING PATHWAY” (VERTEX PHARMACEUTICALS INCORPORATED, priority 2015, published 2018).

Usually IC50 stands for the concentration needed to halve the response being measured.

Format in all cases: cell-based
The subject of test [1] is UTP-stimulated Ca2+ response in HT-29 cells. The experiment in a line: Ca FLIPR TETRA assay, ANTAGONIST mode, activator 0.6 μM UTP. Particulars: Homo sapiens; HT-29 cells, activator 0.6 μM UTP. As to the method: (§1) Protocol for Testing PAR2 Compounds in ANTAGONIST Mode Using the Ca FLIPR^TETRA Assay (384 Well).
(§2) 23000 HT-29 cells (ATCC# HTB-38) were plated in 384-well black, transparent-flat bottom plates and incubated in 25 uL of 1% FBS/McCoy's media ON at 37° C. under an atmosphere of 5% CO2. The following day, 25 uL FLIPR calcium 5 Molecular Devices assay reagent (Cat: R-8186) was added. Plates were incubated at 37° C. and r. t. for 45 min and 15 min, respectively. Compounds dilutions were prepared in 100% DMSO using a Biomek FX and diluted 20-fold in HBSS and then 5.5 uL was added directly to the cells by the FLIPR^TETRA (10× dilution) using FLIPR Tetra Pipette tips, black, non-sterile, 384 Molecular Devices (Cat: 9000-0764).
(§3) A first read was performed to determine whether the test compounds on their own can activate Ca^2+ responses. The cells were incubated with the compounds for 30 min at r. t. and then read in ANTAGONIST mode in the same plate by stimulating with 6.2 uL of a fixed concentration of the activator: final concentrations 8 μM SLIGKV, 1 U/mL Thrombin, 3.1 U/mL trypsin, or 0.6 μM UTP.

Test [2] deals with Thrombin-stimulated Ca2+ response in HT-29 cells. Description: Ca FLIPR TETRA assay, ANTAGONIST mode, activator 1 U/mL Thrombin. Particulars: Homo sapiens; HT-29 cells, activator 1 U/mL Thrombin. The method, then:
as §1, §2, §3

Test [3] addresses T1, PAR2 (HT-29 cells) (Homo sapiens, UniProt P55085).
T1 construct: host or cells: HT-29
T1 sequence (P55085 26-397): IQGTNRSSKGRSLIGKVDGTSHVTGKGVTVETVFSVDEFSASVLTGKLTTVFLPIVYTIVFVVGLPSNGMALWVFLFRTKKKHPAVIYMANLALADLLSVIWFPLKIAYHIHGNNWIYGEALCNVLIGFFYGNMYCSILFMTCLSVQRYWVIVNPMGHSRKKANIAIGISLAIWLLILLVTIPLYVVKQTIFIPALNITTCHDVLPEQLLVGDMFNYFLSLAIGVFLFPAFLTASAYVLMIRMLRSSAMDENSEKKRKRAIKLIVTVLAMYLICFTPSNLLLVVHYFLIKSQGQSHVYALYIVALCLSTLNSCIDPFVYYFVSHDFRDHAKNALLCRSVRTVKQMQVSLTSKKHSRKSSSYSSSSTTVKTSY
Description: Ca FLIPR TETRA assay, ANTAGONIST mode, activator 3.1 U/mL trypsin. The settings on record: HT-29 cells, activator 3.1 U/mL trypsin; maximal antagonist concentration per Method (A: 0.1, 1 or 2 μM; B: 50 μM). As to the method:
as §1, §2, §3

Test [4] concerns the target T1, PAR2 (HT-29 cells). Description: Ca FLIPR TETRA assay, ANTAGONIST mode, activator 8 μM SLIGKV. The settings on record: HT-29 cells, activator 8 μM SLIGKV; maximal antagonist concentration per Method (A: 0.1, 1 or 2 μM; B: 50 μM). As to the method: as §1, §2, §3

Molecules are shown by their SMILES.

In the case of `CC(C)c1cc(-c2ccc(F)cc2)nc2cc(C(=O)N3CCN(C(=O)C4(O)CCOCC4)CC3(C)C)oc12` [Example I-23], the IC50 worked out at 11 µM in test [1], 7.8 µM in test [2], 0.071 µM in test [3] and 0.08 µM in test [4].
Take `CC(=O)N1CCN(C(=O)c2cc3nc(-c4ccc(F)cc4)cc(C(C)C)c3o2)C(C)(C)C1` [Example I-24]: the IC50 came out at 9.9 µM in test [1], 8.7 µM in test [2], 0.044 µM in test [3] and 0.048 µM in test [4].
Take `CC1(c2cc(-c3ccc(F)cc3)nc3cc(C(=O)N4CCNC(=O)C4(C)C)oc23)CC1` [Example I-25]: the IC50 in test [1] came to 2.7 µM; in test [2], 4.3 µM; in test [3], 0.018 µM; in test [4], 0.014 µM.
On to `CC1(c2cc(-c3ccc(F)cc3)nc3cc(C(=O)N4CCN(C(=O)C5(O)CC5)CC4(C)C)oc23)CC1` [Example I-26], for which the IC50 in test [1] is 7 µM; in test [2], 4.8 µM; in test [3] it was 0.008 µM; in test [4], 0.0061 µM.
For `CC(C)(O)C(=O)N1CCN(C(=O)c2cc3nc(-c4ccc(F)cc4)cc(C4(C)CC4)c3o2)C(C)(C)C1` [Example I-27] the same measures were 7.4 µM, 6 µM, 0.033 µM and 0.019 µM.
In the case of `CC[C@@H](O)C(=O)N1CCN(C(=O)c2cc3nc(-c4ccc(F)cc4)cc(C4(C)CC4)c3o2)C(C)(C)C1` [Example I-28], the IC50 in test [1] was 11 µM; in test [2], 8.8 µM; in test [3], 0.0035 µM; in test [4], 0.0042 µM.
The corresponding values for `CO[C@H](C)C(=O)N1CCN(C(=O)c2cc3nc(-c4ccc(F)cc4)cc(C4(C)CC4)c3o2)C(C)(C)C1` [Example I-29] are 16 µM, 19 µM, 0.032 µM and 0.023 µM.
For `CC1(c2cc(-c3ccc(F)cc3)nc3cc(C(=O)N4CCN(C(=O)[C@H]5CCCO5)CC4(C)C)oc23)CC1` [Example I-30] the same measures were 13 µM, 20 µM, 0.014 µM and 0.016 µM.
The corresponding values for `CC1(c2cc(-c3ccc(F)cc3)nc3cc(C(=O)N4CCN(C(=O)C(O)C5CC5)CC4(C)C)oc23)CC1` (centres unmarked) [Example I-31] are more than 50 µM, more than 50 µM, 21 µM and 17 µM.
For the compound `CC(C)[C@@H](O)C(=O)N1CCN(C(=O)c2cc3nc(-c4ccc(F)cc4)cc(C4(C)CC4)c3o2)C(C)(C)C1` [Example I-32], the IC50 in test [1] is 6.7 µM; in test [2], 11 µM; in test [3], 0.0046 µM; in test [4], 0.0059 µM.
As to `CC1(c2cc(-c3ccc(F)cc3)nc3cc(C(=O)N4CCN(C(=O)[C@H]5CCC(=O)O5)CC4(C)C)oc23)CC1` [Example I-33], the IC50 came to 5.8 µM in test [1], 3.6 µM in test [2], 0.064 µM in test [3] and 0.094 µM in test [4].
As for `CCCCC(O)C(=O)N1CCN(C(=O)c2cc3nc(-c4ccc(F)cc4)cc(C4(C)CC4)c3o2)C(C)(C)C1` (centres unmarked) [Example I-34], the IC50 in test [1] is 26 µM; in test [2] it was more than 25 µM; in test [3] it was 0.0059 µM; in test [4] it was 0.0046 µM.
For `CCC(C)(O)C(=O)N1CCN(C(=O)c2cc3nc(-c4ccc(F)cc4)cc(C4(C)CC4)c3o2)C(C)(C)C1` (centres unmarked) [Example I-35], the IC50 is 11 µM in test [1], 14 µM in test [2], 0.049 µM in test [3] and 0.034 µM in test [4].
Turning to `CC(C)C[C@@H](O)C(=O)N1CCN(C(=O)c2cc3nc(-c4ccc(F)cc4)cc(C4(C)CC4)c3o2)C(C)(C)C1` [Example I-36], the IC50 was more than 26 µM in test [1], 31 µM in test [2], 0.0015 µM in test [3] and 0.00097 µM in test [4].
On to `COCCOCC(=O)N1CCN(C(=O)c2cc3nc(-c4ccc(F)cc4)cc(C4(C)CC4)c3o2)C(C)(C)C1` [Example I-37], for which the IC50 in test [1] came to 17 µM; in test [2], 21 µM; in test [3] it was 0.067 µM; in test [4], 0.057 µM.
Consider `CC(C)(C)CC(O)C(=O)N1CCN(C(=O)c2cc3nc(-c4ccc(F)cc4)cc(C4(C)CC4)c3o2)C(C)(C)C1` (centres unmarked) [Example I-38], for which the IC50 in test [1] was 39 µM; in test [2], more than 50 µM; in test [3] it was 0.0031 µM; in test [4] it was 0.0035 µM.
`CC1(c2cc(-c3ccc(F)cc3)nc3cc(C(=O)N4CCN(C(=O)C(C)(O)C(F)(F)F)CC4(C)C)oc23)CC1` (centres unmarked) [Example I-39]: the IC50 in test [1] stood at 23 µM; in test [2] it was 21 µM; in test [3], 0.02 µM; in test [4], 0.014 µM.
The corresponding values for `CC1(c2cc(-c3ccc(F)cc3)nc3cc(C(=O)N4CCN(C(=O)[C@H](O)C5CCCCC5)CC4(C)C)oc23)CC1` [Example I-40] are 30 µM, 37 µM, 0.0073 µM and 0.005 µM.
With `CC1(c2cc(-c3ccc(F)cc3)nc3cc(C(=O)N4CCN(C(=O)[C@H](O)Cc5ccccc5)CC4(C)C)oc23)CC1` [Example I-41], the IC50 in test [1] was more than 50 µM; in test [2] it was more than 50 µM; in test [3] it was 0.0085 µM; in test [4], 0.0065 µM.
In the case of `CC1(c2cc(-c3ccc(F)cc3)nc3cc(C(=O)N4CCN(C(=O)C5CCCCC5)CC4(C)C)oc23)CC1` [Example I-42], the IC50 in test [1] was more than 50 µM; in test [2], more than 50 µM; in test [3], 0.0012 µM; in test [4] it was 0.0012 µM.
As to `CC1(C(=O)N2CCN(C(=O)c3cc4nc(-c5ccc(F)cc5)cc(C5(C)CC5)c4o3)C(C)(C)C2)CCCCC1` [Example I-43], the IC50 in test [1] was more than 50 µM; in test [2], more than 50 µM; in test [3], 0.0082 µM; in test [4] it was 0.0069 µM.
Consider `CCC(C)C(=O)N1CCN(C(=O)c2cc3nc(-c4ccc(F)cc4)cc(C4(C)CC4)c3o2)C(C)(C)C1` (centres unmarked) [Example I-44], for which the IC50 is 36 µM in test [1], more than 40 µM in test [2], 0.0032 µM in test [3] and 0.0029 µM in test [4].
As to `CC1(C(=O)N2CCN(C(=O)c3cc4nc(-c5ccc(F)cc5)cc(C5(C)CC5)c4o3)C(C)(C)C2)CC1` [Example I-45], the IC50 in test [1] turned out to be 4.7 µM; in test [2], 20 µM; in test [3], 0.0041 µM; in test [4], 0.004 µM.
The corresponding values for `CC(C)C(=O)N1CCN(C(=O)c2cc3nc(-c4ccc(F)cc4)cc(C4(C)CC4)c3o2)C(C)(C)C1` [Example I-46] are 5.3 µM, 4.1 µM, 0.007 µM and 0.0079 µM.
`CC[C@H](C(=O)N1CCN(C(=O)c2cc3nc(-c4ccc(F)cc4)cc(C4(C)CC4)c3o2)C(C)(C)C1)c1ccccc1` [Example I-47]: the IC50 in test [1] was more than 50 µM; in test [2] it was more than 50 µM; in test [3], 0.078 µM; in test [4], 0.029 µM.
As for `CC1(c2cc(-c3ccc(F)cc3)nc3cc(C(=O)N4CCN(C(=O)C5CCC5)CC4(C)C)oc23)CC1` [Example I-48], the IC50 in test [1] is 16 µM; in test [2] it was 16 µM; in test [3] it was 0.0059 µM; in test [4], 0.0051 µM.
